Data taken from publication PMC12040169 (PLOS Biology, 2025).

assay: in vitro; conditions: human, hela cells, % viability

Structure (SMILES)	viability at 28.5 h, 10 µM [%]
CN(C)c1ccccc1-c1cnc(N2CCOCC2)c2nccn12 [CBK091280]	90.7
Cc1csc(-c2cnc(N3CCOCC3)c3nccn23)c1 [CBK091287]	87.5
c1ccc(Cn2cc(-c3cnc(N4CCOCC4)c4nccn34)cn2)cc1 [CBK091289]	79.7
c1ccc2cc(-c3cnc(N4CCOCC4)c4nccn34)ccc2c1 [CBK091307]	94.1
CC(=O)N[C@H](Cc1c[nH]c2ccccc12)C(=O)N1CCN(c2ccc(C(F)(F)F)cc2)CC1 [CBK091314]	94.5
CCOC(=O)CCCCCCC(=O)N1CCN(c2ccc(C(F)(F)F)cc2)CC1 [CBK091327]	107
CC(=O)[C@H]1C[C@@H](CC(=O)N2CCN(c3ccc(C(F)(F)F)cc3)CC2)C1(C)C [CBK091330]	93.6
Cc1ccccc1C(=O)NCC(=O)Nc1ccc(Cl)nc1 [CBK091335]	103
CC(=O)[C@H]1C[C@@H](CC(=O)Nc2ccc(Cl)nc2)C1(C)C [CBK091338]	97.7
CC(=O)NCCCCCC(=O)Nc1ccc(Cl)cn1 [CBK091341]	92.3
CCC(C)(C)C(=O)Nc1ccc(Br)c2ccccc12 [CBK091342]	79.7
O=C(Nc1cc2cccnc2nc1Cl)c1ccc(C(F)(F)F)cc1[N+](=O)[O-] [CBK091348]	89.9
CC(=O)[C@H]1C[C@@H](CC(=O)Nc2cc3cccnc3nc2Cl)C1(C)C [CBK091351]	95.7
Cc1ccc(S(=O)(=O)NCC(=O)Nc2ccc(Cl)cn2)cc1 [CBK091357]	105
FC(F)(F)c1cccc(Sc2cccc3ccccc23)n1 [CBK091449]	94.8
CC(C)(C)OCc1[nH]n(CCc2ccccc2)c(=O)c1Cc1c(Cl)cccc1Cl [CBK091452]	89.3
Cc1ccc(C(=O)N2CN(C(=O)CN(C)CCN(C)C)CC2(C)C)cc1 [CBK091460C]	115
Brc1cn2c(-c3ccccc3)cnc2c(N2CCCC2)n1 [CBK091488]	106
COc1ccc(CCCC(=O)N2CCN(c3ccccc3OC)CC2)cc1OC [CBK091495]	87.1
COc1ccccc1N1CCN(C(=O)C2CC2C)CC1 (stereo not shown) [CBK091496]	108
COc1ccccc1N1CCN(C(=O)CN2C(=O)c3ccccc3C2=O)CC1 [CBK091501]	95.5
COc1ccccc1N1CCN(C(=O)c2ccccc2C(=O)c2ccccc2)CC1 [CBK091506]	92.9
COc1ccccc1N1CCN(C(=O)c2ccc3c(c2)no[n+]3[O-])CC1 [CBK091510]	85
c1ccc(CNC2CCc3[nH]c4ccccc4c3C2)cc1 (stereo not shown) [CBK091587T]	106
CC(C)CC(C(=O)Nc1nnc(C(C)C)s1)N1C(=O)c2ccccc2C1=O (stereo not shown) [CBK091610]	77.3
CN(C)S(=O)(=O)c1c(Cl)cccc1Cl [CBK091643]	84
CC(=O)N[C@H]1[C@H](Oc2ccc3ccccc3c2)O[C@@H]2COC(C)(C)O[C@H]2[C@@H]1O [CBK091644]	87
O=C(Nn1cnnc1)c1cccc(C(=O)Nn2cnnc2)c1 [CBK091759]	99.4
COc1ccc(-n2c(SCC(=O)Nc3cccc(C(C)=O)c3)nc3sc(C)c(C)c3c2=O)cc1 [CBK091806]	97.6

same assay, conditions: human, hela cells, % viability, bulk resorufin, single well

Structure (SMILES)	viability at 28.5 h, 10 µM [%]
CC(=O)[C@H]1C[C@@H](CC(=O)N2CCC(C(C)=O)(c3ccccc3)CC2)C1(C)C [CBK091323]	109
N#CC1(c2ccccc2)CCN(C(=O)COc2ccc(F)cc2)CC1 [CBK091387]	92.6
COc1ccc(CC(=O)N2CCC(C#N)(c3ccccc3)CC2)c(OC)c1 [CBK091388]	91.4
N#CC1(c2ccccc2)CCN(C(=O)c2ccccc2C(=O)c2ccccc2)CC1 [CBK091396]	107
N#CC1(c2ccccc2)CCN(C(=O)c2ccc(S(N)(=O)=O)cc2)CC1 [CBK091397]	96.5
CCC(=O)N1CCC(C#N)(c2ccccc2)CC1 [CBK091400]	87
CC(=O)c1c(C)[nH]c(C(=O)N2CCC(C#N)(c3ccccc3)CC2)c1C [CBK091404]	93.3
N#CC1(c2ccccc2)CCN(C(=O)c2ccc3c(c2)no[n+]3[O-])CC1 [CBK091405]	92.2
COc1cc(-c2ccc3c(c2)OC2(CCNCC2)O3)ccn1 [CBK091454]	106
CCOC(=O)N1CCC2(CC1)Oc1ccc(-c3ccc(OC)cc3OC)cc1O2 [CBK091467]	99.7
COc1cc(C(=O)Nc2ccc3c(c2)COC2(CCN(C(=O)OC(C)(C)C)CC2)O3)cc(OC)c1OC [CBK091527]	85.9
COc1ccc(C(=O)Nc2ccc3c(c2)COC2(CCNCC2)O3)c(OC)n1 [CBK091528T]	87.5
O=C(Nc1ccc2c(c1)COC1(CCNCC1)O2)c1cc2cc(Cl)ccc2[nH]1 [CBK091529T]	71.3
COc1cc(NC(=O)Nc2ccc3c(c2)COC2(CCNCC2)O3)cc(OC)c1OC [CBK091530T]	94.9
